Test results from patent US20120053130A1, “COMPOSITION FOR ENHANCING ABSORPTION OF A DRUG AND METHOD” (Bristol-Myers Squibb Company, priority 2010, published 2012).

Key:
[1] = DDAVP permeation across Calu-3 cells on Transwell filters; format: in vitro ADME, human; conditions: human
Excerpt: (§1) Papp values are labeled on top of the bars.
(§2) Inclusion of LPC further boosted the transport of DDAVP.

Calu-3 cells [2] = test: Alamar Blue acute cytotoxicity assay; format: cell-based, human
Excerpt: FIG. 2 depicts an Alamar Blue Assay—Black bar indicates the % of the cell survival after 2 hrs treatment of LPC at 0-0.25%; gray bar indicates the combination of LPC with 0.5% of C971P.
This assay is based on the ability of live cells to enzymatically reduce Alamar blue dye which indicates the relative percentage of cells that survive the exposure to the various treatments. Calu-3 cells exposed to buffer for 2 hr were used as the positive control with 100% cell survival.

Calu-3 cells [3] = test: TEER measurement (cell integrity and reversibility); format: cell-based, human; conditions: for TEER after 2 hr (% initial): Phosphatidylcholine (Lecithin) Treatment
Excerpt: The asterisk (delete scatters with) (*) represent (delete marker present) those samples where TEER recovered to the original level within 12 hrs after washout of the treatment.
Transepithelial electrical resistance (TEER) measures the integrity of the epithelial barrier. […] Return of the TEER values to initial levels indicates recovery to baseline barrier properties. TEER measurements were done in confluent highly resistant Calu-3 cells cultured in Transwell filters with handheld STX-2 electrodes connected to EVOM Voltohmmeter. […] After the removal of apical treatment, TEER recovered to the original values.

[4] = Intra-nasal DADLE absorption in rabbits; format: in vivo, rabbit; conditions: DADLE 1 mg/kg intra-nasal via syringe microsprayer
Excerpt: Intra-nasal delivery of the model pentapepdide DADLE in water, C971P, LPC or C971P/LPC formulation was studied in rabbits. […] The C971P/LPC formulation enhanced DADLE absorption by >50% compared to LPC alone.

Calu-3 cells [5] = test: DDAVP permeation across Calu-3 cells on Transwell filters; format: in vitro ADME, human; conditions: for DDAVP Permeability: Phosphatidylcholine (Lecithin) Treatment
Excerpt: as §1, §2

For `NC(=O)CC[C@@H]1NC(=O)[C@H](Cc2ccccc2)NC(=O)[C@H](Cc2ccc(O)cc2)NC(=O)CCSSC[C@@H](C(=O)N2CCC[C@H]2C(=O)N[C@H](CCCN=C(N)N)C(=O)NCC(N)=O)NC(=O)[C@H](CC(N)=O)NC1=O` [DDAVP, 1 deamino-8-D-arginin-vasopressin], the Papp A→B [1] was 0.04 ± 0.003 ×10⁻⁶ cm/s.

For `CCCCCCCCCC(=O)[O-].[Na+]` [sodium caprate], the “effect of Carbopol 971P on acute cytotoxicity of the enhancer” value (Calu-3 cells [2]; Alamar Blue cytotoxicity assay in Calu-3 cells) was “failed to reduce the acute cytotoxicity”.

With L-α-lysophosphatidylcholine [LPC] the “change in TEER on treatment” value (Calu-3 cells [3]; 2 hours of treatment) was “dramatic drop in TEER”, the cell survival (Calu-3 cells [2]; 0.05% LPC, 2 hr, without or with 0.5% C971P) was “About 82%” and the cell survival (Calu-3 cells [2]; 0.1% LPC, 2 hr, without or with 0.5% C971P) was 41%. For the same compound, the “cell survival, result in words” value (Calu-3 cells [2]; LPC 0-0.25%, 2 hr, without or with 0.5% C971P) was “dose-dependent reduction in survival” and the “DADLE exposure relative to water control” value [4] was 2.4 times.

In the case of “Phosphatidylcholine [Phosphatidylcholine (Lecithin)]”, the “DDAVP permeability enhancement and TEER drop, result in words” value (Calu-3 cells [5]; Calu-3 cells, TEER 2 hr after exposure) is reported as “failed to show any measurable enhancement or TEER drop”, the “DDAVP Permeability” value (Calu-3 cells [5]; 1 mM) is reported as 0.045 ± 0.003 ×10⁻⁶ cm/s and the “DDAVP Permeability” value (Calu-3 cells [5]; 2 mM) is reported as 0.044 ± 0.003 ×10⁻⁶ cm/s. For the same compound, the “DDAVP Permeability” value (Calu-3 cells [5]; 5 mM) was 0.044 ± 0.004 ×10⁻⁶ cm/s, the “TEER after 2 hr (% initial)” value (Calu-3 cells [3]; 1 mM) was “No change” and the “TEER after 2 hr (% initial)” value (Calu-3 cells [3]; 2 mM) was “No change”. For the same compound, the “TEER after 2 hr (% initial)” value (Calu-3 cells [3]; 5 mM) was “No change”.
